{"source": "PubChem BioAssay (NCI)", "assay_in_all_cases": "NCI-60 cell line screen, 384-well format", "key": {"[1]": {"tested_on": "A549 NSCLC"}, "[2]": {"tested_on": "CAKI-1 renal"}, "[3]": {"tested_on": "DU-145 prostate"}, "[4]": {"tested_on": "HCT-116 colon"}, "[5]": {"tested_on": "HS 578T breast"}, "[6]": {"tested_on": "LOX IMVI melanoma"}, "[7]": {"tested_on": "MALME-3M melanoma"}, "[8]": {"tested_on": "MCF7 breast"}, "[9]": {"tested_on": "MDA-MB-468 breast"}, "[10]": {"tested_on": "NCI-H522 lung"}, "[11]": {"tested_on": "OVCAR-4 ovarian"}, "[12]": {"tested_on": "RXF 393 renal"}, "[13]": {"tested_on": "SN12C renal"}}, "note": "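Here, GI50 denotes the concentration required for 50% inhibition of growth. TGI: total growth inhibition.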"}
{"compound": "C[C@H](NC(=O)c1c(N)nn2cccnc12)c1cc2cccc(C#Cc3cnn(C)c3)c2c(=O)n1-c1ccccc1", "values": [{"measurement": "GI50", "setting": "[1]", "result": 4.45, "unit": "µM"}, {"measurement": "TGI", "setting": "[1]", "result": 17.6, "unit": "µM"}, {"measurement": "GI50", "setting": "[2]", "result": 1.28, "unit": "µM"}, {"measurement": "TGI", "setting": "[2]", "result": 15.7, "unit": "µM"}, {"measurement": "GI50", "setting": "[3]", "result": 7.97, "unit": "µM"}, {"measurement": "TGI", "setting": "[3]", "result": 23.8, "unit": "µM"}, {"measurement": "GI50", "setting": "[4]", "result": 6.64, "unit": "µM"}, {"measurement": "TGI", "setting": "[4]", "result": 20, "unit": "µM"}, {"measurement": "GI50", "setting": "[5]", "result": 0.846, "unit": "µM"}, {"measurement": "TGI", "setting": "[5]", "result": 6.01, "unit": "µM"}, {"measurement": "GI50", "setting": "[6]", "result": 2.95, "unit": "µM"}, {"measurement": "TGI", "setting": "[6]", "result": 12.7, "unit": "µM"}, {"measurement": "GI50", "setting": "[7]", "result": 6.62, "unit": "µM"}, {"measurement": "TGI", "setting": "[7]", "result": 20.5, "unit": "µM"}, {"measurement": "GI50", "setting": "[8]", "result": 1.25, "unit": "µM"}, {"measurement": "TGI", "setting": "[8]", "result": 6.84, "unit": "µM"}, {"measurement": "GI50", "setting": "[9]", "result": 0.507, "unit": "µM"}, {"measurement": "TGI", "setting": "[9]", "result": 3.34, "unit": "µM"}, {"measurement": "GI50", "setting": "[10]", "result": 4.55, "unit": "µM"}, {"measurement": "TGI", "setting": "[10]", "result": 18.7, "unit": "µM"}, {"measurement": "GI50", "setting": "[11]", "result": 11.9, "unit": "µM"}, {"measurement": "TGI", "setting": "[11]", "result": 25.4, "unit": "µM"}, {"measurement": "GI50", "setting": "[12]", "result": 1.3, "unit": "µM"}, {"measurement": "TGI", "setting": "[12]", "result": 5.68, "unit": "µM"}, {"measurement": "GI50", "setting": "[13]", "result": 4.38, "unit": "µM"}, {"measurement": "TGI", "setting": "[13]", "result": 20, "unit": "µM"}]}
